Patent US20200187499A1, “SUBSTITUTED BENZYL-4-AMINOPICOLINIC ESTERS AND PYRIMIDINO-4-CARBOXYLIC ESTERS, METHODS FOR THE PRODUCTION THEREOF, AND USE THEREOF AS HERBICIDES AND PLANT GROWTH REGULATORS” (Bayer CropScience Aktiengesellschaft, priority 2017, published 2020)

What was measured:
Assay type in all cases: in vivo
[1] = tested on: ABUTH; assay: Post-emergence herbicidal action; conditions: 320 g/ha, assessed after about 3 weeks
Experimental: (§1) Seeds of monocotyledonous and dicotyledonous weed and crop plants are laid out in sandy loam soil in wood-fiber pots, covered with soil and cultivated in a greenhouse under good growth conditions. 2 to 3 weeks after sowing, the test plants are treated at the one-leaf stage. The compounds of the invention, formulated in the form of wettable powders (WP) or as emulsion concentrates (EC), are then sprayed onto the green parts of the plants in the form of an aqueous suspension or emulsion at a water application rate equating to 600 to 800 l/ha, with addition of 0.2% wetting agent. After the test plants have been left to stand in the greenhouse under optimal growth conditions for about 3 weeks, the action of the preparations is assessed visually in comparison to untreated controls (herbicidal action in percent (%): 100% activity=the plants have died, 0% activity=like control plants). […] At the same time, inventive compounds leave Gramineae crops such as barley, wheat, rye, millet/sorghum, corn or rice virtually undamaged when applied post-emergence, even at high active ingredient dosages. In addition, some substances are also harmless to dicotyledonous crops such as soya, cotton, oilseed rape, sugar beet or potatoes. Some of the compounds according to the invention have high selectivity and are therefore suitable for controlling unwanted vegetation in agricultural crops by the post-emergence method. The tables below illustrate, in an exemplary manner, the post-emergence herbicidal action of the compounds according to the invention, the herbicidal activity being stated in percent.

[2] = tested on: AMARE; assay: Post-emergence herbicidal action; conditions: 320 g/ha, assessed after about 3 weeks
Experimental: as §1

[3] = tested on: ECHCG; assay: Pre-emergence herbicidal action; conditions: Table 4, pre-emergence (PE), 320 g/ha, scored after 3 weeks
Source text: (§2) Seeds of monocotyledonous and dicotyledonous weed plants and crop plants are laid out in sandy loam soil in wood-fiber pots and covered with soil. The compounds of the invention, formulated in the form of wettable powders (WP) or as emulsion concentrates (EC), are then applied to the surface of the covering soil in the form of an aqueous suspension or emulsion at a water application rate equating to 600 to 800 I/ha, with addition of 0.2% wetting agent. After the treatment, the pots are placed in a greenhouse and kept under good growth conditions for the trial plants. The damage to the test plants is scored visually after a test period of 3 weeks by comparison with untreated controls (herbicidal activity in percent (%): 100% activity=the plants have died, 0% activity=like control plants).
(§3) At the same time, inventive compounds leave Gramineae crops such as barley, wheat, rye, millet/sorghum, corn or rice virtually undamaged when applied pre-emergence, even at high active ingredient dosages. In addition, some substances are also harmless to dicotyledonous crops such as soya, cotton, oilseed rape, sugar beet or potatoes. […] The tables below illustrate, in an exemplary manner, the pre-emergence herbicidal action of the compounds according to the invention, the herbicidal activity being stated in percent.

[4] = tested on: AMARE; assay: Pre-emergence herbicidal action; conditions: Table 4, pre-emergence (PE), 320 g/ha, scored after 3 weeks
Source text: as §2, §3

[5] = tested on: SETVI; assay: Post-emergence herbicidal action; conditions: 320 g/ha, assessed after about 3 weeks
Experimental: as §1

[6] = tested on: STEME; assay: Post-emergence herbicidal action; conditions: Table 6, post-emergence (PO), 320 g/ha, assessed after about 3 weeks
Experimental: as §1

[7] = tested on: ECHCG; assay: Post-emergence herbicidal action; conditions: 320 g/ha, assessed after about 3 weeks
Experimental: as §1

Structure (SMILES)	Herbicidal action against ECHCG [3]	Herbicidal action against AMARE [4]	Herbicidal action against SETVI ([5]; Table 6, post-emergence (PO))	Herbicidal action against ABUTH ([1]; Table 6, post-emergence (PO))	Herbicidal action against STEME [6]	Herbicidal action against AMARE ([2]; Table 6, post-emergence (PO))	also measured
Nc1cc(-c2ccc3occc3c2)nc(C(=O)OCc2ccccc2[N+](=O)[O-])c1Cl [Example I-62]							Herbicidal action against ABUTH ([1]; Table 9, post-emergence (PO)): 100%; Herbicidal action against AMARE ([2]; Table 9, post-emergence (PO)): 40%
Nc1cc(-c2ccc3ccsc3c2)nc(C(=O)OCc2ccc(F)c(F)c2F)c1Cl [Example I-46]	60%	100%					Herbicidal action against ABUTH ([1]; Table 9, post-emergence (PO)): 90%; Herbicidal action against AMARE ([2]; Table 9, post-emergence (PO)): 100%
Nc1cc(-c2ccc3occc3c2)nc(C(=O)OCc2ccccc2C(F)(F)F)c1Cl [Example I-37]	90%	100%	90%	100%	100%	100%	
Nc1cc(-c2ccc3occc3c2)nc(C(=O)OCc2ccc(F)cc2F)c1Cl [Example I-24]	60%	90%	80%	100%	80%	100%	
COc1c(F)ccc(COC(=O)c2nc(-c3ccc4ccoc4c3)cc(N)c2Cl)c1F [Example I-28]	90%	100%	100%	100%	100%	100%	
Nc1cc(-c2ccc3ccoc3c2F)nc(C(=O)OCc2ccc(Cl)cc2)c1Cl [Example I-49]			80%	90%	90%	100%	
Nc1c(F)c(-c2ccc3ccsc3c2)nc(C(=O)OCc2ccc(Cl)cc2)c1Cl [Example I-45]	40%	100%	30%	90%	90%	90%	
Nc1c(F)c(-c2ccc3sccc3c2)nc(C(=O)OCc2ccc(F)cc2F)c1Cl [Example I-56]	30%	80%	80%	80%	90%	90%	
Nc1cc(-c2ccc3ccoc3c2)nc(C(=O)OCc2cc(F)c(F)cc2F)c1Cl [Example I-27]	60%	100%	80%	90%	100%	100%	
Nc1c(F)c(-c2ccc3ncsc3c2)nc(C(=O)OCc2ccc(Cl)cc2)c1Cl [Example I-64]			90%	90%	40%	90%	
Nc1cc(-c2ccc3ccoc3c2)nc(C(=O)OCc2ccc(F)cc2)c1Cl [Example I-26]	70%	100%	100%	100%	100%	100%	
Nc1cc(-c2ccc3ccsc3c2)nc(C(=O)OCc2cccc(Cl)c2)c1Cl [Example I-50]	70%	80%					Herbicidal action against SETVI ([5]; Table 7, post-emergence (PO)): 40%; Herbicidal action against SETVI ([5]; Table 8, post-emergence (PO)): 40%; Herbicidal action against ABUTH ([1]; Table 7, post-emergence (PO)): 90%; Herbicidal action against ABUTH ([1]; Table 8, post-emergence (PO)): 90%; Herbicidal action against ECHCG ([7]; Table 7, post-emergence (PO)): 90%; Herbicidal action against ECHCG ([7]; Table 8, post-emergence (PO)): 90%; Herbicidal action against AMARE ([2]; Table 7, post-emergence (PO)): 100%; Herbicidal action against AMARE ([2]; Table 8, post-emergence (PO)): 100%
Nc1cc(-c2ccc3ncsc3c2)nc(C(=O)OCc2ccc(Cl)cc2)c1Cl [Example I-69]							Herbicidal action against SETVI ([5]; Table 7, post-emergence (PO)): 80%; Herbicidal action against SETVI ([5]; Table 8, post-emergence (PO)): 80%; Herbicidal action against ABUTH ([1]; Table 7, post-emergence (PO)): 90%; Herbicidal action against ABUTH ([1]; Table 8, post-emergence (PO)): 90%; Herbicidal action against ECHCG ([7]; Table 7, post-emergence (PO)): 90%; Herbicidal action against ECHCG ([7]; Table 8, post-emergence (PO)): 90%; Herbicidal action against AMARE ([2]; Table 7, post-emergence (PO)): 100%; Herbicidal action against AMARE ([2]; Table 8, post-emergence (PO)): 100%
Nc1cc(-c2ccc3ncsc3c2)nc(C(=O)OCc2ccc(F)cc2F)c1Cl [Example I-39]			100%	100%	70%	90%	
Nc1cc(-c2ccc3ncsc3c2)nc(C(=O)OCc2cccc(Cl)c2)c1Cl [Example I-60]							Herbicidal action against SETVI ([5]; Table 7, post-emergence (PO)): 80%; Herbicidal action against SETVI ([5]; Table 8, post-emergence (PO)): 80%; Herbicidal action against ABUTH ([1]; Table 7, post-emergence (PO)): 90%; Herbicidal action against ABUTH ([1]; Table 8, post-emergence (PO)): 90%; Herbicidal action against ECHCG ([7]; Table 7, post-emergence (PO)): 90%; Herbicidal action against ECHCG ([7]; Table 8, post-emergence (PO)): 90%; Herbicidal action against AMARE ([2]; Table 7, post-emergence (PO)): 80%; Herbicidal action against AMARE ([2]; Table 8, post-emergence (PO)): 80%
Nc1c(F)c(-c2cc3ccoc3cc2F)nc(C(=O)OCc2ccc(Cl)cc2)c1Cl [Example I-68]							Herbicidal action against ABUTH ([1]; Table 9, post-emergence (PO)): 80%; Herbicidal action against AMARE ([2]; Table 9, post-emergence (PO)): 80%
Nc1c(F)c(-c2ccc3ccoc3c2)nc(C(=O)OCc2ccc(Cl)cc2Cl)c1Cl [Example I-51]	20%	70%					Herbicidal action against ABUTH ([1]; Table 9, post-emergence (PO)): 80%; Herbicidal action against AMARE ([2]; Table 9, post-emergence (PO)): 90%
COc1c(Cl)ccc(Cl)c1COC(=O)c1nc(-c2ccc3occc3c2)cc(N)c1Cl [Example I-57]			80%	90%	70%	100%	
Nc1c(F)c(-c2ccc3occc3c2)nc(C(=O)OCc2ccc(F)cc2F)c1Cl [Example I-48]	10%	90%	30%	90%	80%	90%	
Nc1cc(-c2ccc3ccsc3c2)nc(C(=O)OCc2ccccc2Cl)c1Cl [Example I-44]	60%	90%	60%	100%	100%	100%	
Nc1cc(-c2ccc3ccoc3c2F)nc(C(=O)OCc2cccc(Cl)c2)c1Cl [Example I-33]	20%	90%	80%	90%	90%	100%	
Nc1c(F)c(-c2ccc3occc3c2)nc(C(=O)OCc2ccc(Cl)cc2Cl)c1Cl [Example I-63]							Herbicidal action against ABUTH ([1]; Table 9, post-emergence (PO)): 80%; Herbicidal action against AMARE ([2]; Table 9, post-emergence (PO)): 80%
Nc1cc(-c2ccc3occc3c2)nc(C(=O)OCc2cccc(Cl)c2)c1Cl [Example I-38]			90%	100%	100%	100%	
Nc1cc(-c2ccc3ccoc3c2)nc(C(=O)OCc2ccc(F)c(F)c2F)c1Cl [Example I-23]	90%	100%	90%	90%	100%	100%	
Nc1c(F)c(-c2ccc3sccc3c2)nc(C(=O)OCc2c(F)cc(F)cc2F)c1Cl [Example I-59]	30%	80%	80%	90%	90%	90%	
Nc1c(F)c(-c2cc3ccsc3cc2F)nc(C(=O)OCc2ccc(Cl)cc2)c1Cl [Example I-58]							Herbicidal action against ABUTH ([1]; Table 9, post-emergence (PO)): 90%; Herbicidal action against AMARE ([2]; Table 9, post-emergence (PO)): 100%
Nc1c(F)c(-c2cc3ccoc3cc2F)nc(C(=O)OCc2ccc(F)cc2)c1Cl [Example I-71]							Herbicidal action against ABUTH ([1]; Table 9, post-emergence (PO)): 40%; Herbicidal action against AMARE ([2]; Table 9, post-emergence (PO)): 80%
